Data: patent publication US4752614A, “Pharmaceutical compositions of tellerium and selenium compounds for the induction of in vivo and in vitro production of cytokines” (Bar-Ilan University, priority 1987, dated 1988)
Values joined by “and” are separate entries in the source; they are usually repeats but may differ in a detail not shown here. Equal values may be shown once.

Legend:
IL-2 [1] = experiment: IL-2 secretion by mouse spleen cells in vitro, CTLD proliferation (Example 17); format: cell-based, male Balb/c mice; conditions: 24 hours, 1 μg/ml of cell mixture; for activation at 1 µg/mL: Mus musculus, read-out: Spleen Cells, percent in parentheses (increase over control)
Protocol: The compounds listed below were tested in vitro at various concentrations that ranged from 10 μg/ml cells to 1×10^-6 μg/ml of cell mixtures. Cells were obtained from spleens of male Balb/c mice 6-8 weeks of age. Spleens were pushed through a stainless steel 60 mesh strainer to separate cells.

IL-2 receptors = experiment: Induction of IL-2 receptors of human mononuclear cells, proliferation with recombinant IL-2 (Example 18); format: cell-based
Protocol: Human MNC were brought to a concentration of 10^6 cells/ml. RPMI+10% FCS. Aliquots of 0.2 ml. were placed in duplicate wells of microdishes and plates were incubated at 37° C. for 24 hrs. […] Plates were further incubated for 48 hrs. and labelled with 3H thymidine 24 hrs. before harvesting.
The proliferation was measured by ^3 HT uptake as described by Gillis et al, J. Immunol. […] The results are expressed in counts per minute.

IL-2 [2] = experiment: Oral administration in drinking water, IL-2 content of spleen cell supernatants (Example 13); format: in vivo, male Balb-C mice; conditions: 4 days
Protocol: The water solution was prepared by dissolving the compounds in PBS at a concentration of 50 μg/ml PBS and diluting the resulting solution to the desired concentration. The compounds were administered over a 4 day period. The exact amount of liquid intake was recorded daily. […] The cells were incubated at a concentration of 10^7 cells/ml in enriched RPMI containing 2 μg/ml of con-A for 24 hours at 37° C. The supernatants were collected and tested for IL-2 content.

human mononuclear cells [3] = experiment: Proliferation of human mononuclear cells, 3H-methylthymidine (Examples 4 and 9); format: cell-based; conditions: 1 to 10 ng/ml cells, 72 hours (Example 9)
Protocol: Cells were further incubated overnight and harvested with a cell harvester.

human mononuclear cells [4] = experiment: Proliferation of human mononuclear cells (Example 19); format: cell-based
Protocol: Human mononuclear cells were obtained by layering heparinized blood over a Ficoll/Hypaque gradient. The mononuclear cells were resuspended in enriched RPMI, rinsed three times and brought to a concentrations of 5×10^5 cells/ml encriched RPMI. […] Aliquots of 0.2 ml of each sample were placed in wells of microplates (triplicates). Microplates were incubated for 72 hours at 37° C. after which they were labelled with H^3 methyl-thymidine 1 μCi/well for an additional 24 hours. Cells were then harvested with a cell harvester.

SMILES: COc1ccc([Te](Cl)(Cl)c2ccc(OC)cc2)cc1 [(pCH3 OPh)2 TeCl2, reference compound]
- Spleen Cells (IL-2 activity) (IL-2 [1]): 2,148 cpm

SMILES: Cl[Te]1(Cl)OCCO1 [Example 2]
- proliferation (3HT uptake) (IL-2 receptors; Test B, 1 μg/ml): 9315 counts per minute
- proliferation (3HT uptake) (IL-2 receptors; Test B, 1 × 10^-2 μg/ml): 6418 counts per minute
- proliferation (3HT uptake) (IL-2 receptors; Test B, 1 × 10^-3 μg/ml): 5167 counts per minute
- proliferation (3HT uptake) (IL-2 receptors; Test B, 1 × 10^-4 μg/ml): 5372 counts per minute
- proliferation (3HT uptake) (IL-2 receptors; Test B, 1 × 10^-5 μg/ml): 6397 counts per minute
- proliferation (3HT uptake) (IL-2 receptors; Test B, 5 × 10^-1 μg/ml): 8688 counts per minute
- proliferation (3HT uptake) (IL-2 receptors; Test B, 5 × 10^-2 μg/ml): 5538 counts per minute
- proliferation (3HT uptake) (IL-2 receptors; Test B, 7 × 10^-1 μg/ml): 5250 counts per minute
- IL-2 content (IL-2 [2]; 1 μg/ml H2O): 42500 cpm
- Percent increase as compared to control (IL-2 [2]; 1 μg/ml H2O): +30%
- IL-2 content (IL-2 [2]; 10 μg/ml H2O): 36815 cpm
- IL-2 content (IL-2 [2]; 25 μg/ml H2O): 44500 cpm
- Percent increase as compared to control (IL-2 [2]; 25 μg/ml H2O): +35%
- increase of proliferation of human mononuclear cells (human mononuclear cells [3]): 10 fold
- Spleen Cells (IL-2 activity) (IL-2 [1]): 18,000 cpm
- activation at 1 µg/mL (IL-2 [1]): 605%
- proliferation of human mononuclear cells (human mononuclear cells [4]; Ex. 2 table, 1 × 10^-4 μg/ml): 4321 and 2332
- proliferation of human mononuclear cells (human mononuclear cells [4]; Ex. 2 table, 5 × 10^-1 μg/ml): 18415 and 23957
- proliferation of human mononuclear cells (human mononuclear cells [4]; Ex. 2 table, 5 × 10^-2 μg/ml): 5953 and 5532

SMILES: C1CO[Te]2(O1)OCCO2 [Example 14]
- proliferation (3HT uptake) (IL-2 receptors; Test B, 1 μg/ml): 2620 counts per minute
- proliferation (3HT uptake) (IL-2 receptors; Test B, 1 × 10^-2 μg/ml): 3928 counts per minute
- proliferation (3HT uptake) (IL-2 receptors; Test B, 1 × 10^-3 μg/ml): 3007 counts per minute
- proliferation (3HT uptake) (IL-2 receptors; Test B, 1 × 10^-4 μg/ml): 2327 counts per minute
- proliferation (3HT uptake) (IL-2 receptors; Test B, 1 × 10^-5 μg/ml): 2242 counts per minute
- proliferation (3HT uptake) (IL-2 receptors; Test B, 5 × 10^-1 μg/ml): 2402 counts per minute
- proliferation (3HT uptake) (IL-2 receptors; Test B, 5 × 10^-2 μg/ml): 3290 counts per minute
- proliferation (3HT uptake) (IL-2 receptors; Test B, 7 × 10^-1 μg/ml): 2000 counts per minute
- Spleen Cells (IL-2 activity) (IL-2 [1]): 10,300 cpm
- activation at 1 µg/mL (IL-2 [1]): 304%

SMILES: CC1CO[TeH](Cl)(Cl)(Cl)O1 (stereo not drawn) [Example 16(a)]
- proliferation (3HT uptake) (IL-2 receptors; Test A, 1 μg/ml): 21910 counts per minute
- proliferation (3HT uptake) (IL-2 receptors; Test A, 1 × 10^-2 μg/ml): 9543 counts per minute
- proliferation (3HT uptake) (IL-2 receptors; Test A, 1 × 10^-3 μg/ml): 6685 counts per minute
- proliferation (3HT uptake) (IL-2 receptors; Test A, 1 × 10^-4 μg/ml): 6447 counts per minute
- proliferation (3HT uptake) (IL-2 receptors; Test A, 1 × 10^-5 μg/ml): 8177 counts per minute
- proliferation (3HT uptake) (IL-2 receptors; Test A, 5 × 10^-1 μg/ml): 145208 counts per minute
- proliferation (3HT uptake) (IL-2 receptors; Test A, 5 × 10^-2 μg/ml): 8752 counts per minute
- proliferation (3HT uptake) (IL-2 receptors; Test A, 7 × 10^-1 μg/ml): 130845 counts per minute
- Spleen Cells (IL-2 activity) (IL-2 [1]): 13,540 cpm
- activation at 1 µg/mL (IL-2 [1]): 435%
- proliferation of human mononuclear cells (human mononuclear cells [4]; second part of table, 1 μg/ml): 4557
- proliferation of human mononuclear cells (human mononuclear cells [4]; second part of table, 5 μg/ml): 4118
- proliferation of human mononuclear cells (human mononuclear cells [4]; second part of table, 1 × 10^-1 μg/ml): 12435
- proliferation of human mononuclear cells (human mononuclear cells [4]; second part of table, 1 × 10^-2 μg/ml): 6000
- proliferation of human mononuclear cells (human mononuclear cells [4]; second part of table, 1 × 10^-3 μg/ml): 6300
- proliferation of human mononuclear cells (human mononuclear cells [4]; second part of table, 1 × 10^-4 μg/ml): 4587
- proliferation of human mononuclear cells (human mononuclear cells [4]; second part of table, 5 × 10^-1 μg/ml): 18415
- proliferation of human mononuclear cells (human mononuclear cells [4]; second part of table, 5 × 10^-2 μg/ml): 5953

SMILES: CC1O[TeH](Cl)(Cl)(Cl)OC1C (stereo not drawn) [Example 16(b)]
- proliferation (3HT uptake) (IL-2 receptors; Test A, 1 μg/ml): 1018 counts per minute
- proliferation (3HT uptake) (IL-2 receptors; Test A, 1 × 10^-2 μg/ml): 5883 counts per minute
- proliferation (3HT uptake) (IL-2 receptors; Test A, 1 × 10^-3 μg/ml): 1093 counts per minute
- proliferation (3HT uptake) (IL-2 receptors; Test A, 1 × 10^-4 μg/ml): 1138 counts per minute
- proliferation (3HT uptake) (IL-2 receptors; Test A, 1 × 10^-5 μg/ml): 2146 counts per minute
- proliferation (3HT uptake) (IL-2 receptors; Test A, 5 × 10^-1 μg/ml): 1195 counts per minute
- proliferation (3HT uptake) (IL-2 receptors; Test A, 5 × 10^-2 μg/ml): 1602 counts per minute
- proliferation (3HT uptake) (IL-2 receptors; Test A, 7 × 10^-1 μg/ml): 2102 counts per minute
- Spleen Cells (IL-2 activity) (IL-2 [1]): 10,650 cpm
- activation at 1 µg/mL (IL-2 [1]): 318%

SMILES: Cl[TeH]1(Cl)(Cl)OCCCO1 [Example 16(c)]
- Spleen Cells (IL-2 activity) (IL-2 [1]): 15,720 cpm
- activation at 1 µg/mL (IL-2 [1]): 516%
